Where “and” joins values, the source holds several entries; their conditions need not be identical. Identical values can stand only once.
Conditions: Liquid; for electrical conductivity / viscosity / self diffusion coefficient: 101.33 kPa; for electrical conductivity: Alternating current cell with electrodes; for mass density: 100 kPa, Vibrating tube method; for self diffusion coefficient: NMR spin-echo technique

CCn1cc[n+](C)c1.CS(=O)(=O)[O-] [1-ethyl-3-methylimidazolium methanesulfonate]
Conditions	electrical conductivity	mass density [kg/m3]	self diffusion coefficient [m2/s]
273.15 K	0.0413 S/m	–	–
278.15 K	0.0656 S/m	1256.19	–
280.65 K	–	1254.4	–
283.15 K	0.0988 S/m	1252.62	–
285.65 K	–	1250.84	–
288.15 K	0.142 S/m	1249.07	–
293.15 K	0.197 S/m	1245.55	–
294 K	–	–	7.63e-12
296.58 K	–	–	9e-12
296.62 K	–	–	9.07e-12
298.15 K	0.265 S/m and 0.259 S/m	1242.06	–
298.98 K	–	–	1.02e-11
299.01 K	–	–	1.03e-11
300.65 K	0.298 S/m	–	–
301.63 K	–	–	1.23e-11
301.77 K	–	–	1.24e-11
303.15 K	0.346 S/m and 0.34 S/m	1238.7	–
304 K	–	–	1.35e-11
304.01 K	–	–	1.34e-11
305.65 K	0.386 S/m	–	–
306.53 K	–	–	1.52e-11
306.58 K	–	–	1.55e-11
308.15 K	0.435 S/m	–	–
310.65 K	0.488 S/m	–	–
313.15 K	0.553 S/m	1231.94	–
313.69 K	–	–	2.21e-11
313.74 K	–	–	2.21e-11
323.15 K	0.821 S/m	1225.21	–
323.7 K	–	–	3.42e-11
323.73 K	–	–	3.43e-11
333.15 K	1.15 S/m	1218.52	–
333.42 K	–	–	5.06e-11
333.52 K	–	–	5.07e-11
343.15 K	1.55 S/m	1211.87	–
343.66 K	–	–	7.13e-11
343.73 K	–	–	7.12e-11
353.15 K	1.99 S/m	1205.26	–
353.4 K	–	–	9.71e-11
353.61 K	–	–	9.7e-11
363.15 K	–	1198.74	–

viscosity
Conditions	Concentric cylinders viscometry	Falling or rolling sphere viscometry
273.15 K	1250.4 mPa·s	–
278.15 K	749.3 mPa·s	–
283.15 K	475.8 mPa·s	472.2 mPa·s and 472.4 mPa·s
285.65 K	–	379 mPa·s
288.15 K	317.1 mPa·s	314.8 mPa·s and 315.7 mPa·s
293.15 K	219.7 mPa·s and 220.2 mPa·s and 220 mPa·s	218.9 mPa·s and 219.3 mPa·s
296.15 K	–	181.5 mPa·s and 179.5 mPa·s and 179.8 mPa·s
298.15 K	158.2 mPa·s	159.8 mPa·s and 160.6 mPa·s
300.15 K	–	138.8 mPa·s [middle of 4 runs]
303.15 K	115.6 mPa·s	116.3 mPa·s
305.65 K	–	101.8 mPa·s and 102 mPa·s
308.15 K	–	89.34 mPa·s and 89.37 mPa·s
313.15 K	66.71 mPa·s	69.08 mPa·s and 69.13 mPa·s and 69.74 mPa·s
323.15 K	43.42 mPa·s	44.52 mPa·s and 44.54 mPa·s
333.15 K	30.27 mPa·s	30.49 mPa·s and 30.68 mPa·s
343.15 K	22.11 mPa·s	21.93 mPa·s and 21.98 mPa·s
353.15 K	16.66 mPa·s	16.42 mPa·s and 16.46 mPa·s
363.15 K	12.94 mPa·s	12.73 mPa·s and 12.81 mPa·s

CCn1cc[n+](C)c1.N#C[B-](C#N)(C#N)C#N [1-ethyl-3-methylimidazolium tetracyanoborate]
Falling or rolling sphere viscometry
Conditions	viscosity
263.15 K	111.3 mPa·s
264.05 K	108.4 mPa·s
265.65 K	96.35 mPa·s and 96.52 mPa·s
268.15 K	81 mPa·s [middle of 6 runs]
273.15 K	58.91 mPa·s and 58.87 mPa·s and 60.07 mPa·s
278.15 K	44.77 mPa·s
283.15 K	34.55 mPa·s and 34.65 mPa·s and 34.73 mPa·s
288.15 K	27.4 mPa·s and 27.3 mPa·s and 27.14 mPa·s
293.15 K	22.35 mPa·s [middle of 6 runs]
296.15 K	19.62 mPa·s [middle of 4 runs]
298.15 K	18.51 mPa·s [middle of 4 runs]
300.15 K	17.16 mPa·s and 16.93 mPa·s
303.15 K	15.47 mPa·s and 15.64 mPa·s and 15.62 mPa·s
313.15 K	11.25 mPa·s [middle of 5 runs]
323.15 K	8.531 mPa·s and 8.521 mPa·s and 8.518 mPa·s
333.15 K	6.68 mPa·s
338.15 K	5.992 mPa·s and 6.022 mPa·s
343.15 K	5.399 mPa·s and 5.4 mPa·s and 5.395 mPa·s
348.15 K	4.921 mPa·s and 4.92 mPa·s
353.15 K	4.458 mPa·s and 4.455 mPa·s and 4.454 mPa·s

Conditions	mass density [kg/m3]
273.15 K	1056.29
283.15 K	1048.19
293.15 K	1040.2
298.15 K	1036.25
303.15 K	1032.31
313.15 K	1024.52
323.15 K	1016.81
333.15 K	1009.19
343.15 K	1001.66
353.15 K	994.2
363.15 K	986.83

C[N+](C)(C)CCO.O=S(=O)([N-]S(=O)(=O)C(F)(F)F)C(F)(F)F [choline bis(trifluoromethylsulfonyl)imide]
Conditions	mass density [kg/m3]
313.15 K	1513.41
315.65 K	1511.12
318.15 K	1508.82
323.15 K	1504.27
328.15 K	1499.7
333.15 K	1495.16
338.15 K	1490.66
343.15 K	1486.16
348.15 K	1481.69
353.15 K	1477.22
358.15 K	1472.78
363.15 K	1468.35

CC1COC(=O)O1 (centres undefined) [4-methyl-1,3-dioxolan-2-one]
Conditions	mass density [kg/m3]	self diffusion coefficient
251.94 K	–	1.29e-10 m2/s
251.99 K	–	1.25e-10 m2/s and 1.24e-10 m2/s
262.92 K	–	1.95e-10 m2/s and 1.9e-10 m2/s
262.93 K	–	1.96e-10 m2/s and 1.93e-10 m2/s
273.09 K	–	2.76e-10 m2/s and 2.73e-10 m2/s
273.15 K	1226.25	2.73e-10 m2/s and 2.65e-10 m2/s
278.15 K	1220.9	–
278.27 K	–	3.12e-10 m2/s
278.28 K	–	3.19e-10 m2/s
278.51 K	–	3.19e-10 m2/s
283.15 K	1215.55	–
283.25 K	–	3.7e-10 m2/s and 3.63e-10 m2/s
283.27 K	–	3.7e-10 m2/s and 3.68e-10 m2/s
288.26 K	–	4.06e-10 m2/s and 4.1e-10 m2/s and 4.07e-10 m2/s
293.15 K	1204.89	–
293.21 K	–	4.58e-10 m2/s
293.27 K	–	4.62e-10 m2/s and 4.6e-10 m2/s
298.05 K	–	5.14e-10 m2/s
298.14 K	–	5.02e-10 m2/s and 5.01e-10 m2/s
298.15 K	1199.58	–
298.19 K	–	5.24e-10 m2/s and 5.21e-10 m2/s
298.21 K	–	5.23e-10 m2/s
298.26 K	–	5.24e-10 m2/s
303.15 K	1194.27	–
303.18 K	–	5.99e-10 m2/s and 5.89e-10 m2/s
303.19 K	–	5.98e-10 m2/s and 5.86e-10 m2/s
308.21 K	–	6.71e-10 m2/s and 6.58e-10 m2/s
308.27 K	–	6.74e-10 m2/s and 6.54e-10 m2/s
308.78 K	–	6.55e-10 m2/s
308.86 K	–	6.59e-10 m2/s
313.15 K	1183.67	–
313.39 K	–	7.44e-10 m2/s and 7.43e-10 m2/s
313.41 K	–	7.32e-10 m2/s and 7.46e-10 m2/s
318.26 K	–	8.17e-10 m2/s and 8.06e-10 m2/s
318.4 K	–	8.14e-10 m2/s and 8.18e-10 m2/s
323.15 K	1173.08	–
323.2 K	–	8.97e-10 m2/s and 9.06e-10 m2/s
323.25 K	–	9.05e-10 m2/s and 8.92e-10 m2/s
323.65 K	–	8.96e-10 m2/s and 8.76e-10 m2/s
323.67 K	–	8.78e-10 m2/s and 8.71e-10 m2/s
333.08 K	–	1.05e-09 m2/s
333.13 K	–	1.04e-09 m2/s
333.15 K	1162.5	–
342.8 K	–	1.22e-09 m2/s
342.86 K	–	1.18e-09 m2/s
343.15 K	1151.92	–
352.52 K	–	1.4e-09 m2/s
352.61 K	–	1.42e-09 m2/s
352.68 K	–	1.35e-09 m2/s
353.15 K	1141.33	–
363.15 K	1130.73	–

CCn1cc[n+](C)c1.O=S(=O)([O-])C(F)(F)F [1-ethyl-3-methylimidazolium trifluoromethanesulfonate]
Falling or rolling sphere viscometry
Conditions	viscosity
268.15 K	172.2 mPa·s and 172.4 mPa·s
273.15 K	130.7 mPa·s and 130.6 mPa·s
278.15 K	102.3 mPa·s and 102 mPa·s
283.15 K	80.26 mPa·s and 80.24 mPa·s
293.15 K	52.45 mPa·s
298.15 K	43.54 mPa·s [middle of 4 runs]
300.65 K	39.67 mPa·s and 39.64 mPa·s
303.15 K	36.27 mPa·s
305.65 K	33.3 mPa·s and 33.29 mPa·s
308.15 K	30.75 mPa·s and 30.7 mPa·s
313.15 K	26.21 mPa·s and 26.2 mPa·s
323.15 K	19.57 mPa·s and 19.48 mPa·s
333.15 K	15.02 mPa·s
343.15 K	11.78 mPa·s and 11.73 mPa·s
348.15 K	10.51 mPa·s

Conditions	electrical conductivity	mass density
273.15 K	0.346 S/m	1407.23 kg/m3
278.15 K	0.433 S/m	1402.99 kg/m3
283.15 K	0.534 S/m	1398.75 kg/m3
288.15 K	0.647 S/m	–
293.15 K	0.772 S/m	1390.28 kg/m3 and 1390.27 kg/m3
298.15 K	0.915 S/m and 0.91 S/m	1386.04 kg/m3 and 1386.06 kg/m3
303.15 K	1.06 S/m	1381.85 kg/m3
313.15 K	1.42 S/m	1373.47 kg/m3 and 1373.45 kg/m3
323.15 K	1.82 S/m	1365.14 kg/m3
333.15 K	2.25 S/m	1356.86 kg/m3
343.15 K	2.76 S/m	1348.64 kg/m3
353.15 K	3.29 S/m	1340.46 kg/m3
363.15 K	–	1332.32 kg/m3

Reference: the NIST ThermoML archive (doi:10.1021/acs.jced.6b00021)
